{"source": "patent US20250177339A1", "about": "“Methods for Treating Tauopathy” (BioJiva LLC, priority 2020, published 2025)", "key": {"[1]": {"experiment": "Pharmacokinetic sampling: ratio of D2-AA to AA in red blood cells of treated patients", "type": "in vivo, human", "description": "(§1) Three patients diagnosed with likely PSP underwent baseline assessment using the 28-item Progressive Supranuclear Palsy Rating Scale (PSPRS) and the Unified Parkinson's Disease Rating Scale (UPDRS). They were then treated with D2-Lin (2.88 g BID; 5.76 g total daily dose) and observed for disease progression. The second patient had their dose increased (2.88 g TID; 8.64 g total daily dose) after the first year of treatment. During the treatment period, scores in the 2 rating scales were determined every 3 months. Pharmacokinetic (PK) sampling was performed at month 3. These analytes included plasma and RBC membrane levels of (D2-LA) and its centrally active metabolite D2-AA.\nAt 3 months, the following data was collected:\nAt 12 months, the following data was collected:\nThe above results evidence that a percent ratio of 11,11-D2-AA to AA in red blood cells of about 3% is necessary to achieve therapeutic results."}, "[2]": {"system": "SROS MSCs", "experiment": "Rate of lipid peroxidation (BODIPY C11) in SROS/PSP MSCs", "type": "cell-based, human", "conditions": "72-hour incubation; for rate of lipid peroxidation (LPO), in words: SROS/PSP MSCs, BODIPY C11", "description": "(§2) The effect of D2-Lin on mesenchymal stem cells derived from patients with SROS was assessed using non-deuterated Lin as a control. MSC preparations from bone marrow aspirates from control subjects were compared to 3 subjects with SROS, following protocols described in Hill S., et al., Free Radic. Biol. Med. (2012) 53:893-906; and Cotticelli M G., et al., Redox Biol. (2013) 1:398-404.\n(§3) LPO has been implicated as an early and pivotal factor in SROS. Specifically, increased levels of n-6 PUFA oxidation products such as 4-HNE were reported, as a direct consequence of the LPO chain reaction. Accordingly, the difference in basal MMP and ROS generation between control and the 3 cell lines of SROS MSCs was associated with increased rates of LPO, as detected by the LPO-specific probe, BODIPY C11.\n(§4) MSC preparations from BM were obtained from control subjects and from the PSP subjects following previously described protocols. In short, MSCs were isolated from BM aspirates seeding 50,000 mononucleated cells/cm2 in αMEM (Thermo Fisher Scientific, Waltham, MA, USA) supplemented with 10% fetal bovine serum (FBS; Thermo Fisher Scientific), in T75 flasks. The cultures were incubated at 37° C., 20% O2, 5% CO2. Medium changes were performed twice a week. Two weeks after initial seeding, primary MSC colonies were detached with a 10-minute incubation at 37° C. with TrypLE Select Enzyme (Thermo Fisher Scientific) and replated at 4000 cells/cm^2 in the same medium. MSC identity was previously assessed. Subsequent passages were performed following the same steps. Passage 4-6 MSCs were used for all experiments. […]\n(§5) Lipid peroxidation was measured using confocal microscopy (Zeiss 710 LSM with an integrated META detection system). The rate of lipid peroxidation was measured using C11-BODIPY 581/591 ([…]; Molecular probes) which was excited by the 488 and 543 nm laser line and fluorescence measured using a band-pass filter from 505 to 550 nm and 560 nm long-pass filter (40× oil-objective). […]"}, "[3]": {"system": "SROS MSCs", "experiment": "Glutathione level (monochlorobimane) in SROS/PSP MSCs", "type": "cell-based, human", "conditions": "for glutathione (GSH) level, in words: SROS/PSP MSCs, MCB intensity", "description": "as §2\nGlutathione-related machinery is the major mechanism involved with slowing down the inhibition/propagation the LPO chain as well as mopping up the toxic end products of LPO. Consumption of the endogenous antioxidant glutathione is an indirect measure of oxidative stress.\nas §4\nFor assessments of glutathione levels, the PSP-MSCs cultures were incubated with 50 μM monochlorobimane (MCB) (Molecular Probes, Invitrogen) for 40 minutes in HEPES buffered salt solution prior to imaging. Cells were then washed with HEPES buffered salt solution and images of the fluorescence of the MCB-GSH were acquired using a Zeiss 710 CLSM with excitation at 405 nm and emission at 435-485 nm. Mitochondrial ROS generation rate was assessed using MitoTracker® Red CM-H2XRos (Thermo Fisher Scientific) which accumulates into mitochondria upon oxidation. The fluorescence measurement was obtained by excitation with 561 nm laser and emission detected above 580 nm. Mitochondrial membrane potential (ΔΨm) was assessed using 25 nM tetramethylrhodamine methyl ester (TMRM, Thermo Fisher Scientific) at 560 nm excitation and fluorescence was measured above 580 nm. Z-stack images were collected and the fluorescence intensity of TMRM was analyzed using Zen software (Zeiss). […]\nGlutathione levels were measured using MCB. […]"}, "[4]": {"system": "SROS-MSCs", "experiment": "Mitochondrial membrane potential (fluorescent indicator, TMRM) in SROS MSCs", "type": "cell-based, human", "conditions": "SROS cells from SROS patients; incubation for 72 hours", "description": "as §2\n(§6) MMP is an important indicator of mitochondrial health and is typically kept at […] values (100-140 mV). A long-lasting drop or rise of normal MMP levels may induce loss of cell viability and various pathologies. ROS and LPO levels are directly linked to MMP, and increase exponentially at MMP>140 mV. […]\n(§7) MSC preparations from BM were obtained from control subjects and from the PSP subjects following previously described protocols. […] MSC identity was previously assessed. […]\n(§8) For assessments of glutathione levels, the PSP-MSCs cultures were incubated with 50 μM monochlorobimane (MCB) (Molecular Probes, Invitrogen) for 40 minutes in HEPES buffered salt solution prior to imaging. Cells were then washed with HEPES buffered salt solution and images of the fluorescence of the MCB-GSH were acquired using a Zeiss 710 CLSM with excitation at 405 nm and emission at 435-485 nm. […] The fluorescence measurement was obtained by excitation with 561 nm laser and emission detected above 580 nm. […]"}, "[5]": {"system": "control MSCs", "experiment": "Mitochondrial membrane potential (fluorescent indicator, TMRM) in control MSCs", "type": "cell-based, human", "conditions": "incubation for 72 hours", "description": "as §2, §6, §7, §8"}, "[6]": {"system": "SROS MSCs", "experiment": "Mitochondrial shape in SROS MSCs", "type": "cell-based, human", "conditions": "pre-treatment", "description": "as §2\nPresynaptic terminals typically contain multiple mitochondria. Misshaped mitochondria can clog the pathways that transport them along neurons and through long axons and elaborate dendritic arbors. Mattson et al., Neuron (2009) 60:748-766. Accordingly, mitochondrial shape is another characteristic of mitochondrial health. Also, the communication pathway between ER and mitochondria through MAM is compromised in misshaped mitochondria, further disturbing protein folding, lipid metabolism, Ca^2+ homeostasis and apoptosis. Lee et al., Mol. Cells (2018) 41:1000-1007. Coincident with the improvements in MMP with D-PUFA incubation, the abnormalities of mitochondrial shape seen in SROS MSCs were improved with D-PUFA pre-treatment, resulting in more uniformly looking mitochondria."}, "[7]": {"system": "SROS-MSC", "experiment": "Mitochondrial DNA level (PicoGreen fluorescence in non-nuclear area) in SROS MSCs", "type": "cell-based, human", "conditions": "after 72 hours incubation, from 67.5% before, relative to control MSC 100%", "description": "as §2\n(§9) The number of mitochondria within the cells is regulated by the balance between mitochondrial biogenesis and mitophagy. Accordingly, for the normal maintenance of the mitochondrial balance, SROS-MSCs should activate mitochondrial biogenesis. […] Various factors, for example excessive fusion can result in a lower number of mitochondria in the cell, leading to impaired respiration, a lower production of ATP, and increased oxidative damage. Arun et al., Curr. Neuropharmacol. (2016) 14:143-154. However, after 72 hours incubation of the cells with D2-PUFAs mitochondrial DNA increased for both control and SROS MSCs."}, "[8]": {"system": "control MSC", "experiment": "Mitochondrial DNA level (PicoGreen fluorescence in non-nuclear area) in control MSCs", "type": "cell-based, human", "conditions": "after 72 hours incubation, from 100% before", "description": "as §2, §9"}, "[9]": {"system": "control MSCs", "experiment": "Rate of lipid peroxidation (BODIPY C11) in control MSCs", "type": "cell-based, human", "conditions": "72-hour incubation", "description": "as §2, §3\nas §5, with “oil-objective). Illumination intensity was kept to a minimum (0.1-0.2% of laser output) to prevent phototoxicity and the pinhole was set to give an optical slice of […].” for “oil-objective).”"}, "[10]": {"system": "patients diagnosed with likely PSP", "experiment": "Progressive Supranuclear Palsy Rating Scale (PSPRS) in treated patients", "type": "in vivo, human", "conditions": "three PSP patients; 2.88 g BID; after 3 months of therapy; historical decline 0.91 points/month; +/-0.23 SEM", "description": "as §1\n(§10) The three patients were 2 males ([…]) and one person each of whom had pre-treatment symptom duration of 6 years and 3 years for the two males and 2 years for the person. The baseline PSPRS for the two males was 17 and 12 respectively and 13 for the person. The baseline UPDRS for the two males was 44 and 36 respectively and 21 for the person.\n(§11) After 3 months of therapy, the slope of the PSPRS changed from the historical decline of 0.91 points/month to a mean of decline of 0.16 points/month (+/−0.23 SEM). The UPDRS slope changed from an expected increase of 0.95 points/month to an average increase in score of 0.28 points/month (+/−0.41 SEM)."}, "[11]": {"system": "patients diagnosed with likely PSP", "experiment": "Unified Parkinson's Disease Rating Scale (UPDRS) in treated patients", "type": "in vivo, human", "conditions": "three PSP patients; 2.88 g BID; after 3 months of therapy; expected increase 0.95 points/month; +/-0.41 SEM", "description": "as §1, §10, §11"}, "[12]": {"system": "MSCs derived from patients with SROS", "experiment": "Mitochondrial health (morphology, number, function) of SROS MSCs", "type": "cell-based, human", "conditions": "incubation for 72 hours", "description": "as §2\nThese include changes in mitochondrial morphology, number, and function."}}, "note": "Entries after “also recorded” stand apart in the source; their conditions may differ."}
{"compound": "[2H]C([2H])(/C=C\\C/C=C\\C/C=C\\CCCC(=O)O)/C=C\\CCCCC", "note": "[13,13-D2-Arachadonic acid]", "values": [{"measurement": "% ratio of 11,11-D2-AA to AA", "setting": "[1]; Patient 1, evaluated at 4 months of D2-Lin treatment", "value": 5.9, "unit": "%"}, {"measurement": "% ratio of 11,11-D2-AA to AA", "setting": "[1]; Patient 1, evaluated at 13 months of D2-Lin treatment", "value": 10.5, "unit": "%"}, {"measurement": "% ratio of 11,11-D2-AA to AA", "setting": "[1]; Patient 2, at 3 months of D2-Lin treatment", "value": 3.3, "unit": "%"}, {"measurement": "% ratio of 11,11-D2-AA to AA", "setting": "[1]; Patient 2, at 12 months of D2-Lin treatment", "value": 6.9, "unit": "%"}, {"measurement": "% ratio of 11,11-D2-AA to AA", "setting": "[1]; Patient 3, at 3 months of D2-Lin treatment", "value": 5, "unit": "%"}, {"measurement": "% ratio of 11,11-D2-AA to AA", "setting": "[1]; Patient 3, at 12 months of D2-Lin treatment", "value": 8.6, "unit": "%"}]}
{"compound": "CCCCC/C=C\\C/C=C\\CCCCCCCC(=O)O", "note": "[H2-LA, Non-deuterated linoleic acid, reference compound]", "values": [{"measurement": "rate of lipid peroxidation (LPO), in words", "setting": "[2]", "value": "remained elevated at over two times that of the treated levels"}, {"measurement": "glutathione levels less than those found in the D2-Lin test", "setting": "[3]; PSP MSCs, after incubation, compared with D2-Lin-incubated PSP MSCs", "value": "about 30%"}, {"measurement": "glutathione (GSH) level, in words", "setting": "[3]", "value": "remained low"}]}
{"compound": "[2H]C([2H])(/C=C\\CCCCC)/C=C\\CCCCCCCC(=O)O", "note": "[D2-Lin, 11,11-D2-Linoleic acid]", "values": [{"measurement": "mitochondrial membrane potential (MMP)", "setting": "[4]", "value": "reduced"}, {"measurement": "mitochondrial membrane potential (MMP)", "setting": "[5]", "value": "no effect"}, {"measurement": "abnormalities of mitochondrial shape", "setting": "[6]", "value": "improved"}, {"measurement": "level of mitochondrial DNA (estimation of number of mitochondria)", "setting": "[7]", "value": 105.4, "unit": "%"}, {"measurement": "level of mitochondrial DNA (estimation of number of mitochondria)", "setting": "[8]", "value": 109, "unit": "%"}, {"measurement": "rate of lipid peroxidation (LPO)", "setting": "[2]; SROS MSCs, % of control, from 161.8% before, N=8", "value": 109.8, "unit": "%"}, {"measurement": "rate of lipid peroxidation (LPO), in words", "setting": "[2]", "value": "reversed; also recorded: restored the SROS MSCs to normal levels; also recorded: returned to normal levels"}, {"measurement": "rate of LPO, % of the pre-treatment value", "setting": "[9]", "value": 84.3, "unit": "%"}, {"measurement": "glutathione (GSH) level, in words", "setting": "[3]", "value": "reversed; also recorded: restored to HC levels"}, {"measurement": "glutathione (GSH) level, in words", "setting": "[3]; listed as D2-PUFAs", "value": "significantly increased"}, {"measurement": "slope of the PSPRS, mean decline", "setting": "[10]", "value": 0.16, "unit": "points/month"}, {"measurement": "UPDRS slope, average increase in score", "setting": "[11]", "value": 0.28, "unit": "points/month"}, {"measurement": "mitochondrial morphology, number, and function", "setting": "[12]", "value": "restores these parameters to control MSC levels"}]}
